Bounds are passed on as bounds.

By EC50 is commonly meant the concentration giving half of the maximal effect. Lower therefore signals an effect from little substance.

Data set [1] deals with SK-OV-3 ovarian cancer cells. As to the kind of experiment: Cellular Activity Assay (cytotoxicity, crystal violet). The class given is cell-based. Conditions: Homo sapiens; SK-OV-3 cells, 48 hr treatment, 0.1-100 μM, crystal violet absorbance at 540 nm. The text has this:
To test the activity of compounds, two complimentary assays were used as described below. The Biochemical PRX3 Inhibition Assay tests the ability of each compound to crosslink PRX3 in a simple, in vitro system. In the Cellular Activity Assay, we are testing the ability of compounds to kill SK-OV-3 ovarian cancer cells.
The Cellular Activity Assay measures the EC50 of each compound in human SK-OV-3 ovarian cancer cells TS to be taken into the cell, transported to the mitochondria, and crosslink PRX3.
The cytotoxicity of compounds was measured as described in Nelson et al. (2021) Antioxidants (Basel) 10, 150; Cunniff et al. (2015) PloS one 10, e0127310; and Newick et al. (2012)PloS one 7, e39404. SK-OV-3 is an adherent, epithelial, adenocarcinoma cell line obtained from ATCC (ref #: HTB-77). SK-OV-3 cells are resistant to the commonly used chemotherapeutics, cis-platinum and doxorubicin. For this PRX3 crosslinking assay, SK-OV-3 cells were plated in a 96-well plate. After 24 h recovery, the cells were treated for 48 hr with multiple concentrations of each compound ranging from 0.1-100 μM.
Cells were washed with PBS to remove dead cells and the remaining live cells were fixed with 3.0% formaldehyde and stained with 0.1% crystal violet. The amount of crystal violet was determined by reading the absorbance at 540 nm (crystal violet dye dissolved in 100% methanol) using a plate reader. […]

A further data set can be described thus: Solubility Assay (HPLC). The class given is physicochemical. Conditions: 20 mM HEPES, 100 mM NaCl, pH 7.5, 18-24 hours at ambient temperature. As for the experimental part: A 20 mM stock solution was made for each compound in DMSO. To measure solubility, 0.03-0.05 mL of the stock was added to 0.27 mL 20 mM HEPES, 100 mM NaCl, pH 7.5. The solution was mixed and rotated 18-24 hours at ambient temperature. The next day, solutions were centrifuged for 10 min at 20,000×g at 24° C. to remove insoluble, solid material. Next, 100 μL of the supernatant containing the soluble compound was added to 900 μL DMSO and High Performance Liquid Chromatography was performed as described in Table 1 and either HPLC gradient 1 (Table 2) or HPLC gradient 2 (Table 3). For each analog, a 200 μM standard and a 20 μM standard were prepared and run in parallel (standards were dissolved completely in 100% DMSO). The amount of compound in the experimental sample was calculated by comparing the area under the curve for compound peak to the area for the closest standard and correcting for dilution.

Data set [2] deals with Enterococcus hirae (ATCC #10541). As to the kind of experiment: Antimicrobial Activity Assay (MIC). Type of data set: cell-based. As for the experimental part:
The overnight growth was then diluted into growth media to make a single solution of E. hirae with a final optical density at 600 nm=0.02 AU. A 20 mM stock solution of Thiostrepton in DMSO was made and used to make multiple dilutions of TS in DMSO. Each TS dilution (0.1 mL) was then added to a test tube containing 10 mL of the diluted E. hirae and grown at 37° C. overnight while shaking at 180 rpm. The next morning, each tube was visually inspected to determine if the cells grew. Final concentrations tested were 0.120, 0.090, 0.075, 0.060, 0.045, 0.030, and 0.015 μM TS. […] Three replicates were made on three separate days (n=9). […] For TS analogs, the dilute E. hirae was treated with 20 μM final concentration of each analog (three replicates each). […] DMSO was used as a positive control (complete cell growth) and 20 μM thiostrepton was used as a negative control.

In the next data set the test system is 578 cancer cells lines. The conditions noted are these: of 578 cancer cell lines tested; cited from earlier work.

The compound `C=C(NC(=O)c1csc(N2CCC(NC(=O)CC3CCOCC3)CC2)n1)C(=O)NC(=C)C(=O)OC` [Compound 51, Methyl 2-(2-(2-(4-(2-(tetrahydro-2H-pyran-4-yl)acetamido)piperidin-1-yl)thiazole-4-carboxamido)acrylamido)acrylate] displayed an EC50 in data set [1] of 10 to 25 µM. Also, the Solubility result in the data set “Solubility Assay (HPLC)” is given as “+ (<0.1 mM)”.
Regarding `C=C(NC(=O)C(=C)NC(=O)c1csc(C2=N[C@@H]3c4csc(n4)[C@H]4NC(=O)c5csc(n5)[C@H]([C@](C)(O)[C@@H](C)O)NC(=O)[C@H]5CSC(=N5)/C(=C/C)NC(=O)[C@H]([C@@H](C)O)NC(=O)c5csc(n5)[C@]3(CC2)NC(=O)[C@H](C)NC(=O)C(=C)NC(=O)[C@H](C)NC(=O)[C@H]([C@@H](C)CC)N[C@@H]2C=Cc3c([C@H](C)O)cc(nc3[C@H]2O)C(=O)O[C@@H]4C)n1)C(N)=O` [TS, Thiostrepton], the “TS concentrations at which complete growth was observed” value in data set [2] (E. hirae, overnight at 37° C., n=9) was no more than 0.030 µM. The MIC in data set [2] (Enterococcus hirae, ATCC10541, read-out: TS concentrations at which no growth was observed (MIC)) is no less than 0.045 µM.
Regarding `C=C(NC(=O)C(=C)NC(=O)c1csc(C2=N[C@@H]3c4csc(n4)[C@H]4NC(=O)c5csc(n5)[C@H]([C@](C)(O)[C@@H](C)O)NC(=O)[C@H]5CSC(=N5)/C(=C/C)NC(=O)[C@H]([C@@H](C)O)NC(=O)c5csc(n5)[C@]3(CC2)NC(=O)[C@H](C)NC(=O)C(=C)NC(=O)[C@H](C)NC(=O)[C@H]([C@@H](C)CC)N[C@@H]2C=Cc3c([C@H](C)O)cc(nc3[C@H]2O)C(=O)O[C@@H]4C)n1)C(N)=O` [Thiostrepton (TS), Thiostrepton], the “number of tumor cell lines with meaningful efficacy” value with 578 cancer cells lines is listed as 403.

Source of the values: patent publication US20260062407A1, “PEROXIREDOXIN 3 INHIBITORS AND METHODS OF USE FOR TREATING CANCER” (WAKE FOREST UNIVERSITY HEALTH SCIENCES, priority 2022, published 2026).
